According to patent publication US20110166196A1, “TREATMENT AND PROPHYLAXIS OF EPILEPSY AND FEBRILE SEIZURES” (priority 2008, published 2011):

Assays:
[1] = tested on: excitatory synapses on interneurons; test: Drug-induced depression of EPSC amplitudes in slices from TRPV1-/- and C57BL/6 wild-type mice; assay type: cell-based, mouse; settings: capsaicin 1 μM
Source text: The basic methods have been detailed previously (McMahon and Kauer, 1997). Sprague-Dawley rats (15-22 days old) were used in the majority of experiments. In addition, we used TRPV1^−/− mice (Caterina et al., 2000) and wild-type C57BL/6 mice aged between 15 and 21 days (Jackson Laboratory). The TRPV1^−/− mice we used have been backcrossed at least 10 times onto a C57BL/6 background and were obtained from homozygous breeding pairs. Control mice were therefore not littermates but were age-matched, wild-type C57BL/6 animals received from the same supplier in the same shipment. All animal protocols were approved by the Brown University Institutional Animal Care and Use Committee. For mouse experiments, only one brain slice per mouse was used for each experiment, so that reported ‘n’ numbers represent the number of animals. Animals were anaesthetized using halothane or isoflurane and quickly decapitated. […]
Slices were continuously perfused with ACSF warmed to 28-32° C. at a flow rate of 1-2 ml/min. […] EPSCs were stimulated at 0.1 Hz (100 μsec) using a bipolar stainless steel stimulating electrode placed in stratum radiatum at least 200 μm from the recorded cell. […] In early experiments, we measured rectification ratios of EPSCs evoked at +40 mV/−60 mV in the presence of 50 μM D-AP5, measured at the time of peak inward synaptic current seen at −70 mV (Lei and McBain, 2004).
The maximal initial slope of fEPSPs was calculated using a LabVIEW-based program (National Instruments). The peak amplitude of each EPSC was measured by comparing a 10 msec time period immediately prior to the stimulus with the peak of the EPSC using this program as well. Occasionally polysynaptic responses were evoked, and in these cases, only the initial monosynaptic event was measured. To positively identify LTD, EPSCs measured every 10 seconds were averaged in 1 minute intervals. […]

TRPV1 channels = biological target: T1, TRPV1 channels (Mus musculus, UniProt Q704Y3); test: Heat-ramp evoked inward current and depolarization in CA1 pyramidal neurons of wild-type mice; assay type: cell-based
T1 construct: whole-cell recordings from acutely prepared brain slices from wild type C57BL/6 mice; from tissue; host or cells: acute coronal hippocampal slices from P14-P20 wild-type C57BL/6 mice: CA1 pyramidal neurons

[2] = tested on: area CA3 stratum pyramidale; test: Heat-induced multi-unit activity (MUA) in hippocampal slices, field-potential recording; assay type: cell-based, mouse; settings: wild-type slices pre-treated with capsazepine; p<0.05 vs untreated wild-type, n=27
Procedure: Coronal brain slices, 300-350 μm, were obtained from mice aged postnatal day 14-20 as previously described (Gibson et al., 2008; Gibson et al., 1999; McMahon & Kauer, 1997). Bathing perfusate was identical to previous except where indicated. A Haas-type interface chamber was used for field-potential recordings. Glass micropipettes were filled with 0.9% NaCl (resistance 400-700 kΩ). Simultaneous recordings were made in stratum pyramidale of CA1 and CA3 of each slice. Activity was recorded at 30° C. (5 min), ramped to 42° C. (5 min) and returned to 30° C. (10 min). Signals were amplified, digitally recorded at 10 kHz and stored (LabView).
For field-potential recordings, coronal slices, 350 μm thick, were obtained from P14-15 mice as previously described (Gibson et al., 2008; Gibson et al., 1999; McMahon & Kauer, 1997). Slices were kept at room temperature for at least 30 min until transferred to a 30° C. recording chamber. […] For all field-potential recordings, activity was recorded at 30° C. […] Signals were amplified, digitally recorded at 10 kHz and stored using an in-house LabView based program.
Multi-unit activity (MUA) was high-pass filtered at 500 Hz and spikes were detected using threshold-crossing criteria. […]
All combined data are expressed as mean±the standard error of the mean (s.e.m.). […]

T1 sequence (Q704Y3 whole entry): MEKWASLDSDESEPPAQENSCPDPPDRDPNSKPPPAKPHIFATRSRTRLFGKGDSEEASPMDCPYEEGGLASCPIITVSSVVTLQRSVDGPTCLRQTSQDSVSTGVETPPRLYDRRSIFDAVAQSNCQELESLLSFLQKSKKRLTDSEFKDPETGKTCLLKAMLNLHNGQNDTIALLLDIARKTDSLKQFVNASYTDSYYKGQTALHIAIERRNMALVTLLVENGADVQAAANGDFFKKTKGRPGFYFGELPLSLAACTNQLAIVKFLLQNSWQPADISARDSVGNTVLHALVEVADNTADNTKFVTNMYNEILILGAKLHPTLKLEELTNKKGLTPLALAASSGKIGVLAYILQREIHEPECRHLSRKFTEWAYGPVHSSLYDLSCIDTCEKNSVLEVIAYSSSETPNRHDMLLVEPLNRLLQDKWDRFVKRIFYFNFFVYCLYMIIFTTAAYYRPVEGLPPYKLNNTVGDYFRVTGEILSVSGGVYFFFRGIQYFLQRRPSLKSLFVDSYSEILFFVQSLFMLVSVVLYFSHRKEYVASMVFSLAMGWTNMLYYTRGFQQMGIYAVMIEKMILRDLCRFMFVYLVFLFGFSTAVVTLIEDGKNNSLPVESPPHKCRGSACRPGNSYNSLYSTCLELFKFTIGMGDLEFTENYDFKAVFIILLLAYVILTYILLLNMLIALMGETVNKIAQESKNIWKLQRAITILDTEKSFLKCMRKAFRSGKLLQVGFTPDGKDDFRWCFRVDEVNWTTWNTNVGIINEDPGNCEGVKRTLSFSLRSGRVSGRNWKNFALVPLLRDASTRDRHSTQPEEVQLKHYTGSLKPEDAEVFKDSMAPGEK

heat-induced change of membrane potential in CA1 neurons (TRPV1 channels; 2 μM intracellular capsazepine, current clamp, ramp 30 to 42° C., absence 19.7±4.5 mV, n=6) | effect on heat-evoked current in CA1 pyramidal neuron (TRPV1 channels; bath-applied capsazepine 10 μM, voltage clamp, heat ramp) | Structure (SMILES) | EPSC amplitudes after 10-15 minutes in capsaicin in C57BL/6 wild-type mice ([1]; C57BL/6 wild-type mice, n=6) | EPSC amplitudes after 10-15 minutes in capsaicin in TRPV1−/− mice ([1]; TRPV1−/− mice, n=8) | incidence of heat-induced increased MUA in area CA3 [2]
 |  | COc1cc(CNC(=O)CCCCC=CC(C)C)ccc1O [capsaicin, 8-methyl-N-vanillyl-6-nonenamide] | 50.5±12.1 % of pre-drug control values | 100.7±6.6 % of pre-drug control values | 
1.0±0.7 mV | blocked | Oc1cc2c(cc1O)CN(C(=S)NCCc1ccc(Cl)cc1)CCC2 [capsazepine] |  |  | mimicked trpv1^−/− incidence rates of increased MUA in area CA3
